Reference: ChEMBL document CHEMBL3217502, “Synthesis of dual AChE/5-HT4 receptor multi-target directed ligands” (Medchemcomm, 2012)

Columns and labels:
[1] = biological target: 5-hydroxytryptamine receptor 4 (Cavia porcellus, UniProt O70528); test: Displacement of [3H]-GR113808 from guinea pig 5HT4 receptor by Grossman's method
[2] = biological target: 5-hydroxytryptamine receptor 4 (Homo sapiens) (UniProt Q13639); test: Displacement of [3H]-GR113808 from human 5HT4E receptor at 10^-6 M after 30 mins by liquid scintillation counting
Chain of 5-hydroxytryptamine receptor 4 (Homo sapiens) (Q13639 whole entry): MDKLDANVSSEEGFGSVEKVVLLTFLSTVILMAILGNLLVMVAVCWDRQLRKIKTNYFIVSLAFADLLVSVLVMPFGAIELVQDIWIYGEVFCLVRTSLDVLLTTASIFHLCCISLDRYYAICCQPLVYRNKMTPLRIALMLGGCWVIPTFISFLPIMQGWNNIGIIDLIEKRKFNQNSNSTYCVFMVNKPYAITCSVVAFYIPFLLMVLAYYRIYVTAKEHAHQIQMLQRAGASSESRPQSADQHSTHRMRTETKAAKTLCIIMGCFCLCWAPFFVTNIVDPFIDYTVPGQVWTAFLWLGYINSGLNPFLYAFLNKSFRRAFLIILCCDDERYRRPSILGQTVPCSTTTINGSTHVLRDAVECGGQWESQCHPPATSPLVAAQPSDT

[3] = biological target: 5-hydroxytryptamine receptor 4 (Homo sapiens) (UniProt Q13639); test: Displacement of [3H]-GR113808 from human 5HT4E receptor at 10^-8 M after 30 mins by liquid scintillation counting
Acetylcholinesterase = Acetylcholinesterase (Electrophorus electricus, UniProt O42275); test: Inhibition of electric eel AChE using acetylthiocholine iodide as substrate preincubated for 5 mins before substrate addition measured for 10 mins by Ellman's method
Chain of Acetylcholinesterase (O42275 whole entry): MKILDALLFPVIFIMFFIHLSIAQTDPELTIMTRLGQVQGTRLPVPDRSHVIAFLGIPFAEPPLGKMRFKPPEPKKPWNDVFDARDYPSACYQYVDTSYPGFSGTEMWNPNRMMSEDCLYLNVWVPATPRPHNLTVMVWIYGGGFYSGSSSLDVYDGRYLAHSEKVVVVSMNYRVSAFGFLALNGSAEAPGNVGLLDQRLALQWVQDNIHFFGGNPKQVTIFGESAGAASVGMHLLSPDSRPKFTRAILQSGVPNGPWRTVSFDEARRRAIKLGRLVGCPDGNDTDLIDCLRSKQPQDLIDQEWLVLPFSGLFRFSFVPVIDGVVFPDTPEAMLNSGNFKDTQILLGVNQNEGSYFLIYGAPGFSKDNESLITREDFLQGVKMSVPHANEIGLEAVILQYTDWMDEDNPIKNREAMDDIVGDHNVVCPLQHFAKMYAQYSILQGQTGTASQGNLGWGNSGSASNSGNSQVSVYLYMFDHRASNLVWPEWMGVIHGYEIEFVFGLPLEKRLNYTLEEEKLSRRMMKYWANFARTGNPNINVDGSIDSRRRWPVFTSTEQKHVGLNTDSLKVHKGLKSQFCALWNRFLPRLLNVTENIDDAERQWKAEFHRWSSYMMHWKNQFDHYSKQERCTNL

Chain of 5-hydroxytryptamine receptor 4 (O70528 whole entry): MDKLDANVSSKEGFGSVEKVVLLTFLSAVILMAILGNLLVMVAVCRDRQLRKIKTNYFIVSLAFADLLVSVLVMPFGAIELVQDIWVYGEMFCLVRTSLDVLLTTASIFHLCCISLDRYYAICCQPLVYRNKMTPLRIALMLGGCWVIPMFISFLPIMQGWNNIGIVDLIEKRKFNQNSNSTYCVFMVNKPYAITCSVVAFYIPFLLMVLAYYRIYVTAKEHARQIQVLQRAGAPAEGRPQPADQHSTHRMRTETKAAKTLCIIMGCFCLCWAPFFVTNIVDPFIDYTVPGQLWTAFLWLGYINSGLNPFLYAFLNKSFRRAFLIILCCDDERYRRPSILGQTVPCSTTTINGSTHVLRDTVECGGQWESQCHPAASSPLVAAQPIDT

Structure (SMILES) | Ki [1] | inhibition [2] | inhibition [3] | IC50 (Acetylcholinesterase)
Fc1ccc(CN2CCC(COc3nc4ccsc4n4cccc34)CC2)cc1 | 99 nM |  |  | 
c1ccc(CN2CCC(COc3nc4ccsc4n4cccc34)CC2)cc1 | 52.9 nM | 96% | 30% | 551 nM
c1cc2c(OCC3CCN(CC4CCC4)CC3)nc3ccsc3n2c1 | 25.9 nM |  |  | 
c1cc2c(OCC3CCN(Cc4ccncc4)CC3)nc3ccsc3n2c1 | 174 nM |  |  | 
Cc1csc2nc(OCC3CCN(CC4CCCCC4)CC3)c3cccn3c12 | 4.2 nM | 99% | 60% | 95.8 nM
c1cc2c(OCC3CCN(CC4CCCCC4)CC3)nc3ccsc3n2c1 | 79.9 nM | 99% | 22% | 206 nM
Cc1csc2nc(OCC3CCN(Cc4ccccc4)CC3)c3cccn3c12 | 22 nM | 98% | 38% | 165 nM
c1ccc(CCN2CCC(COc3nc4ccsc4n4cccc34)CC2)cc1 | 49.8 nM |  |  | 
c1cc2c(OCC3CCN(CC4CCCC4)CC3)nc3ccsc3n2c1 | 44.8 nM | 100% | 39% | 597 nM
c1cc2c(OCC3CCN(CC4CC4)CC3)nc3ccsc3n2c1 | 53 nM |  |  | 
CCCN1CCC(COc2nc3scc(C)c3n3cccc23)CC1 | 6 nM |  |  | 5000 nM
c1ccc(CCCN2CCC(COc3nc4ccsc4n4cccc34)CC2)cc1 | 75.8 nM |  |  | 
Cc1csc2nc(OCC3CCN(CC4CCCC4)CC3)c3cccn3c12 | 21.3 nM | 100% | 78% | 553 nM
COc1ccc(CN2CCC(COc3nc4ccsc4n4cccc34)CC2)cc1 | 216 nM |  |  | 
c1ccc(CN2CCC(CCOc3nc4ccsc4n4cccc34)CC2)cc1 |  |  |  | 561 nM
